In US20140187784A1, “RADIOACTIVE QUINOLINONE DERIVATIVE AND PHARMACEUTICAL DRUG COMPRISING THE SAME” (Nihon Medi-Physics Co., Ltd., priority 2012, published 2014):

Assay: Pharmacokinetic and distribution experiment (radioactivity in blood and excised organs after tail vein injection)
Assay type: in vivo
Conditions: ddy mice; for Adrenal gland/Blood ratio / Radioactivity Distribution, Blood / Radioactivity Distribution, Femur / Radioactivity Distribution, Heart / Radioactivity Distribution, Large intestine / Radioactivity Distribution, Lung / Radioactivity Distribution, Small intestine / Radioactivity Distribution, Spleen / Radioactivity Distribution, Stomach / Adrenal gland/Kidney ratio / Radioactivity Distribution, Adrenal gland / Radioactivity Distribution, Kidney / Radioactivity Distribution, Liver / Radioactivity Distribution, Pancreas / Adrenal gland/Liver ratio: tail vein injection; for Adrenal gland/Blood ratio / Radioactivity Distribution, Blood / Radioactivity Distribution, Femur / Radioactivity Distribution, Heart / Radioactivity Distribution, Large intestine / Radioactivity Distribution, Lung / Radioactivity Distribution, Small intestine / Radioactivity Distribution, Spleen / Radioactivity Distribution, Stomach: 14.8 kBq (4 μCi); for Adrenal gland/Kidney ratio / Radioactivity Distribution, Adrenal gland / Radioactivity Distribution, Kidney / Radioactivity Distribution, Liver / Radioactivity Distribution, Pancreas: 14.8 kBq
Protocol: (§1) The HPLC fraction of [^125I]PAY15 obtained in Example 3 was concentrated and then diluted with saline. The resulting solution was used in administration. 100 μL of the solution (18.5 kBq (0.5 μCi)) was injected to the tail vein of each of five ddy mice (6 weeks old). Five minutes later, each mouse was decapitated, and blood was collected. Then, organs (adrenal gland, pancreas, heart, lung, stomach, small intestine, large intestine, liver, spleen, kidney, and thyroid gland) were excised. After measurement of their weights, the radioactivities of blood and each excised organ were measured. Also, the point in time when each mouse was decapitated was changed to 5, 15, 30, 60, and 120 minutes later to perform similar operation.
The HPLC fraction of [^125I]PAY21 obtained in Example 6 was concentrated and then diluted with saline. The resulting solution was used in administration to perform the same operation as in Evaluation 1.
as §1, with “[^18F]PAY27 obtained” for “The HPLC fraction of [^125I]PAY15 obtained”, “Example 10” for “Example 3”, “was” for “was concentrated and then”, “solution (14.8” for “solution (18.5”, “kBq (4” for “kBq (0.5”, “and thigh bone)” for “and thyroid gland)”
as §1, with “[^18F]PAY54 obtained” for “The HPLC fraction of [^125I]PAY15 obtained”, “Example 13” for “Example 3”, “was” for “was concentrated and then”, “solution (14.8” for “solution (18.5”, “kBq (4” for “kBq (0.5”, “and thigh bone)” for “and thyroid gland)”

O=C1CCc2cc(-c3cncc(OCC[18F])c3)cc3c2N1CC3 [[^18F]PAY54, 8-(5-(2-[^18F]fluoroethyloxy)pyridin-3-yl)-1,2,5,6-tetrahydro-4H-pyrrolo[3,2,1-ij]quinolin-4-one]
radioactivity accumulation in the adrenal gland compared with blood and the kidney (5 minutes after administration): high radioactivity accumulation | Adrenal gland/Blood ratio (5 min): 1.55 ± 0.43 | Radioactivity Distribution, Blood (5 min): 4.5 ± 0.2 % dose/g | Radioactivity Distribution, Femur (5 min): 1.9 ± 0.2 % dose/g | Radioactivity Distribution, Heart (5 min): 4.5 ± 0.5 % dose/g | Radioactivity Distribution, Large intestine (5 min): 3.5 ± 0.3 % dose/g | Radioactivity Distribution, Lung (5 min): 4.6 ± 0.2 % dose/g | Radioactivity Distribution, Small intestine (5 min): 5.6 ± 0.3 % dose/g | Radioactivity Distribution, Spleen (5 min): 3.6 ± 0.2 % dose/g | Radioactivity Distribution, Stomach (5 min): 4.6 ± 1.5 % dose/g | Adrenal gland/Blood ratio (15 min): 0.86 ± 0.15 | Radioactivity Distribution, Blood (15 min): 4.5 ± 0.2 % dose/g | Radioactivity Distribution, Femur (15 min): 2.3 ± 0.1 % dose/g | Radioactivity Distribution, Heart (15 min): 3.8 ± 0.2 % dose/g | Radioactivity Distribution, Large intestine (15 min): 6.2 ± 0.5 % dose/g | Radioactivity Distribution, Lung (15 min): 3.7 ± 0.2 % dose/g | Radioactivity Distribution, Small intestine (15 min): 5.3 ± 0.6 % dose/g | Radioactivity Distribution, Spleen (15 min): 3.1 ± 0.2 % dose/g | Radioactivity Distribution, Stomach (15 min): 4.9 ± 0.4 % dose/g | Adrenal gland/Blood ratio (30 min): 0.82 ± 0.13 | Radioactivity Distribution, Blood (30 min): 4.3 ± 0.4 % dose/g | Radioactivity Distribution, Femur (30 min): 2.7 ± 0.3 % dose/g | Radioactivity Distribution, Heart (30 min): 3.7 ± 0.5 % dose/g | Radioactivity Distribution, Large intestine (30 min): 8.5 ± 0.5 % dose/g | Radioactivity Distribution, Lung (30 min): 3.4 ± 0.2 % dose/g | Radioactivity Distribution, Small intestine (30 min): 5.0 ± 0.9 % dose/g | Radioactivity Distribution, Spleen (30 min): 3.1 ± 0.1 % dose/g | Radioactivity Distribution, Stomach (30 min): 3.5 ± 0.2 % dose/g | Adrenal gland/Blood ratio (60 min): 1.16 ± 0.15 | Radioactivity Distribution, Blood (60 min): 3.5 ± 0.5 % dose/g | Radioactivity Distribution, Femur (60 min): 3.4 ± 0.7 % dose/g | Radioactivity Distribution, Heart (60 min): 2.9 ± 0.5 % dose/g | Radioactivity Distribution, Large intestine (60 min): 7.7 ± 1.2 % dose/g | Radioactivity Distribution, Lung (60 min): 2.9 ± 0.4 % dose/g | Radioactivity Distribution, Small intestine (60 min): 3.7 ± 0.7 % dose/g | Radioactivity Distribution, Spleen (60 min): 2.3 ± 0.6 % dose/g | Radioactivity Distribution, Stomach (60 min): 4.3 ± 0.3 % dose/g | Adrenal gland/Blood ratio (120 min): 0.61 ± 0.63 | Radioactivity Distribution, Blood (120 min): 2.8 ± 0.2 % dose/g | Radioactivity Distribution, Femur (120 min): 4.5 ± 0.1 % dose/g | Radioactivity Distribution, Heart (120 min): 2.4 ± 0.4 % dose/g | Radioactivity Distribution, Large intestine (120 min): 7.9 ± 0.7 % dose/g | Radioactivity Distribution, Lung (120 min): 2.2 ± 0.2 % dose/g | Radioactivity Distribution, Small intestine (120 min): 2.4 ± 0.1 % dose/g | Radioactivity Distribution, Spleen (120 min): 2.0 ± 0.2 % dose/g | Radioactivity Distribution, Stomach (120 min): 3.5 ± 0.6 % dose/g | Adrenal gland/Kidney ratio (5 min): 1.60 ± 0.50 | Radioactivity Distribution, Adrenal gland (5 min): 7.0 ± 2.1 % dose/g | Radioactivity Distribution, Kidney (5 min): 4.4 ± 0.5 % dose/g | Radioactivity Distribution, Liver (5 min): 7.5 ± 0.5 % dose/g | Radioactivity Distribution, Pancreas (5 min): 3.4 ± 0.3 % dose/g | Adrenal gland/Kidney ratio (15 min): 1.11 ± 0.15 | Radioactivity Distribution, Adrenal gland (15 min): 3.9 ± 0.8 % dose/g | Radioactivity Distribution, Kidney (15 min): 3.5 ± 0.6 % dose/g | Radioactivity Distribution, Liver (15 min): 6.0 ± 0.4 % dose/g | Radioactivity Distribution, Pancreas (15 min): 2.7 ± 0.2 % dose/g | Adrenal gland/Kidney ratio (30 min): 0.98 ± 0.15 | Radioactivity Distribution, Adrenal gland (30 min): 3.5 ± 0.4 % dose/g | Radioactivity Distribution, Kidney (30 min): 3.6 ± 0.4 % dose/g | Radioactivity Distribution, Liver (30 min): 5.7 ± 0.6 % dose/g | Radioactivity Distribution, Pancreas (30 min): 2.6 ± 0.2 % dose/g | Adrenal gland/Kidney ratio (60 min): 1.40 ± 0.34 | Radioactivity Distribution, Adrenal gland (60 min): 4.1 ± 1.0 % dose/g | Radioactivity Distribution, Kidney (60 min): 3.0 ± 0.3 % dose/g | Radioactivity Distribution, Liver (60 min): 5.0 ± 0.3 % dose/g | Radioactivity Distribution, Pancreas (60 min): 2.4 ± 0.4 % dose/g | Adrenal gland/Kidney ratio (120 min): 0.58 ± 0.54 | Radioactivity Distribution, Adrenal gland (120 min): 2.0 ± 1.5 % dose/g | Radioactivity Distribution, Kidney (120 min): 2.8 ± 0.4 % dose/g | Radioactivity Distribution, Liver (120 min): 4.7 ± 0.6 % dose/g | Radioactivity Distribution, Pancreas (120 min): 1.7 ± 0.2 % dose/g | Adrenal gland/Liver ratio (5 min): 0.95 ± 0.34 | Adrenal gland/Liver ratio (15 min): 0.64 ± 0.13 | Adrenal gland/Liver ratio (30 min): 0.61 ± 0.12 | Adrenal gland/Liver ratio (60 min): 0.82 ± 0.19 | Adrenal gland/Liver ratio (120 min): 0.38 ± 0.41

O=C1CCc2cc(-c3cncc(OCC[18F])c3)cc3c2N1CCC3 [[^18F]PAY27, 9-(5-(2-[^18F]fluoroethyloxy)pyridin-3-yl)-1,2,6,7-tetrahydro-5H-pyrido[3,2,1-ij]quinolin-3-one]
radioactivity accumulation in the adrenal gland compared with blood and periadrenal tissues (at 60 minutes after administration): high radioactivity accumulation | Adrenal gland/Blood ratio (5 min): 1.11 ± 0.17 | Radioactivity Distribution, Blood (5 min): 4.0 ± 0.3 % dose/g | Radioactivity Distribution, Femur (5 min): 1.8 ± 0.1 % dose/g | Radioactivity Distribution, Heart (5 min): 3.9 ± 0.3 % dose/g | Radioactivity Distribution, Large intestine (5 min): 2.5 ± 0.2 % dose/g | Radioactivity Distribution, Lung (5 min): 3.7 ± 0.4 % dose/g | Radioactivity Distribution, Small intestine (5 min): 5.0 ± 0.4 % dose/g | Radioactivity Distribution, Spleen (5 min): 3.0 ± 0.2 % dose/g | Radioactivity Distribution, Stomach (5 min): 5.1 ± 0.4 % dose/g | Adrenal gland/Blood ratio (15 min): 0.83 ± 0.12 | Radioactivity Distribution, Blood (15 min): 4.1 ± 0.2 % dose/g | Radioactivity Distribution, Femur (15 min): 2.3 ± 0.1 % dose/g | Radioactivity Distribution, Heart (15 min): 3.6 ± 0.2 % dose/g | Radioactivity Distribution, Large intestine (15 min): 5.0 ± 0.4 % dose/g | Radioactivity Distribution, Lung (15 min): 3.6 ± 0.1 % dose/g | Radioactivity Distribution, Small intestine (15 min): 6.7 ± 0.6 % dose/g | Radioactivity Distribution, Spleen (15 min): 2.8 ± 0.2 % dose/g | Radioactivity Distribution, Stomach (15 min): 5.6 ± 1.1 % dose/g | Adrenal gland/Blood ratio (30 min): 0.88 ± 0.18 | Radioactivity Distribution, Blood (30 min): 3.6 ± 0.3 % dose/g | Radioactivity Distribution, Femur (30 min): 2.4 ± 0.2 % dose/g | Radioactivity Distribution, Heart (30 min): 3.2 ± 0.4 % dose/g | Radioactivity Distribution, Large intestine (30 min): 6.1 ± 0.4 % dose/g | Radioactivity Distribution, Lung (30 min): 2.7 ± 0.2 % dose/g | Radioactivity Distribution, Small intestine (30 min): 5.9 ± 0.5 % dose/g | Radioactivity Distribution, Spleen (30 min): 2.3 ± 0.1 % dose/g | Radioactivity Distribution, Stomach (30 min): 5.5 ± 0.4 % dose/g | Adrenal gland/Blood ratio (60 min): 1.43 ± 0.47 | Radioactivity Distribution, Blood (60 min): 3.3 ± 0.1 % dose/g | Radioactivity Distribution, Femur (60 min): 3.9 ± 0.2 % dose/g | Radioactivity Distribution, Heart (60 min): 3.0 ± 0.2 % dose/g | Radioactivity Distribution, Large intestine (60 min): 7.0 ± 0.6 % dose/g | Radioactivity Distribution, Lung (60 min): 2.6 ± 0.2 % dose/g | Radioactivity Distribution, Small intestine (60 min): 6.0 ± 0.7 % dose/g | Radioactivity Distribution, Spleen (60 min): 2.2 ± 0.2 % dose/g | Radioactivity Distribution, Stomach (60 min): 4.1 ± 0.9 % dose/g | Adrenal gland/Blood ratio (120 min): 0.58 ± 0.44 | Radioactivity Distribution, Blood (120 min): 2.8 ± 0.5 % dose/g | Radioactivity Distribution, Femur (120 min): 6.4 ± 0.4 % dose/g | Radioactivity Distribution, Heart (120 min): 2.4 ± 0.3 % dose/g | Radioactivity Distribution, Large intestine (120 min): 9.1 ± 1.4 % dose/g | Radioactivity Distribution, Lung (120 min): 2.1 ± 0.1 % dose/g | Radioactivity Distribution, Small intestine (120 min): 3.1 ± 0.6 % dose/g | Radioactivity Distribution, Spleen (120 min): 1.8 ± 0.2 % dose/g | Radioactivity Distribution, Stomach (120 min): 3.9 ± 0.6 % dose/g | Adrenal gland/Kidney ratio (5 min): 1.00 ± 0.19 | Radioactivity Distribution, Adrenal gland (5 min): 4.5 ± 0.8 % dose/g | Radioactivity Distribution, Kidney (5 min): 4.5 ± 0.3 % dose/g | Radioactivity Distribution, Liver (5 min): 6.5 ± 1.0 % dose/g | Radioactivity Distribution, Pancreas (5 min): 3.0 ± 0.4 % dose/g | Adrenal gland/Kidney ratio (15 min): 0.99 ± 0.23 | Radioactivity Distribution, Adrenal gland (15 min): 3.4 ± 0.5 % dose/g | Radioactivity Distribution, Kidney (15 min): 3.5 ± 0.3 % dose/g | Radioactivity Distribution, Liver (15 min): 5.1 ± 0.3 % dose/g | Radioactivity Distribution, Pancreas (15 min): 2.5 ± 0.2 % dose/g | Adrenal gland/Kidney ratio (30 min): 1.40 ± 0.28 | Radioactivity Distribution, Adrenal gland (30 min): 3.2 ± 0.6 % dose/g | Radioactivity Distribution, Kidney (30 min): 2.3 ± 0.2 % dose/g | Radioactivity Distribution, Liver (30 min): 4.1 ± 0.5 % dose/g | Radioactivity Distribution, Pancreas (30 min): 2.0 ± 0.1 % dose/g | Adrenal gland/Kidney ratio (60 min): 1.88 ± 0.55 | Radioactivity Distribution, Adrenal gland (60 min): 4.7 ± 1.7 % dose/g | Radioactivity Distribution, Kidney (60 min): 2.5 ± 0.4 % dose/g | Radioactivity Distribution, Liver (60 min): 3.7 ± 0.3 % dose/g | Radioactivity Distribution, Pancreas (60 min): 2.0 ± 0.1 % dose/g | Adrenal gland/Kidney ratio (120 min): 0.99 ± 0.77 | Radioactivity Distribution, Adrenal gland (120 min): 2.2 ± 1.2 % dose/g | Radioactivity Distribution, Kidney (120 min): 1.7 ± 0.1 % dose/g | Radioactivity Distribution, Liver (120 min): 2.9 ± 0.5 % dose/g | Radioactivity Distribution, Pancreas (120 min): 1.5 ± 0.2 % dose/g | Adrenal gland/Liver ratio (5 min): 0.70 ± 0.16 | Adrenal gland/Liver ratio (15 min): 0.67 ± 0.06 | Adrenal gland/Liver ratio (30 min): 0.79 ± 0.20 | Adrenal gland/Liver ratio (60 min): 1.26 ± 0.37 | Adrenal gland/Liver ratio (120 min): 0.58 ± 0.46
